Laboratory results published in patent publication US10266526B2, “Substituted 1,2,3-triazoles as SMYD inhibitors for treating cancer” (EPIZYME, INC., priority 2014, dated 2019).

Biological target: SMYD3 (Homo sapiens (Human), UniProt Q9H7B4)
Assay: SMYD3 biochemical assay (SMYD3 enzyme assay on MEKK2 protein substrate, 3H-SAM scintillation proximity assay)
Settings: read-out: SMYD3 Biochem IC50 (μM)*
Description: S-adenosylmethionine (SAM), S-adenosylhomocysteine (SAH), Tris, Tween20, dimethylsulfoxide (DMSO), bovine skin gelatin (BSG), and Tris(2-carboxyethyl)phosphine hydrochloride solution (TCEP) were purchased from Sigma-Aldrich at the highest level of purity possible. ^3H-SAM was purchase from American Radiolabeled Chemicals with a specific activity of 80 Ci/mmol. 384-well opaque white OptiPlates and SPA beads (Perkin Elmer, catalog # RPNQ0013) were purchased from PerkinElmer.
N-terminally GST-tagged MEKK2 (MAP3K2) protein corresponding to reference sequence AAF63496.3 was purchased from Life Technologies (catalog # PV4010). This protein was expressed in High Five insect cells and purified to >85% purity. Protein identity was confirmed by MS/MS analysis after proteolytic digestion. The protein sequence used was:
Full-length human SMYD3 isoform 1 (BAB86333) was inserted into a modified pET21b plasmid containing a His6 tag and TEV and SUMO cleavage sites.
E. coli (BL21 codonplus RIL strain, Stratagene) were transformed with plasmid pEPZ553 by mixing competent cells and plasmid DNA and incubating on ice for 30 minutes followed by heat shock at 42° C. for 1 minute and cooling on ice for 2 minutes. Transformed cells were grown and selected on LB agar with 100 μg/mL ampicillin and 17 μg/mL chloramphenicol at 37° C. overnight. A single clone was used to inoculate 200 mL of LB medium with 100 μg/mL ampicillin and 17 μg/mL chloramphenicol and incubated at 37° C. on an orbital shaker at 180 rpm. Once in log growth, the culture was diluted 1:100 into 2 L of LB medium and grown until OD600 was about 0.3 after which the culture was incubated at 15° C. and 160 rpm. Once OD600 reached about 0.4, IPTG was added to a final concentration of 0.1 mM and the cells were grown overnight at 15° C. and 160 rpm. Cells were harvested by centrifugation at 8000 rpm, for 4 minutes at 4° C. and stored at −80° C. for purification.
The column was washed with Buffer B (Buffer A plus 20 mM imidazole) and His-tagged SMYD3 was eluted with Buffer C (Buffer A plus 300 mM imidazole). The His tag, TEV and SUMO cleavage sites were removed generating native SMYD3 by addition of ULP1 protein at a ratio of 1:200 (ULP1:SMYD3). Imidazole was removed by dialysis overnight in Buffer A. The dialyzed solution was applied to a second Nickel column and the native SMYD3 protein was collected from the column flow-through. The flow-through was dialyzed in Buffer D (25 mM Tris, 5% glycerol, 5 mM β-mercaptoethanol, 50 mM NaCl, pH7.8) and ULP1 was removed using a Q sepharose fast flow column.
General Procedure for SMYD3 Enzyme Assays on MEKK2 Protein Substrate
The assays were all performed in a buffer consisting of 25 mM Tris-Cl pH 8.0, 1 mM TCEP, 0.005% BSG, and 0.005% Tween 20, prepared on the day of use. […] DMSO (1 ul) was added to Columns 11, 12, 23, 24, rows A-H for the maximum signal control and 1 ul of SAH, a known product and inhibitor of SMYD3, was added to columns 11, 12, 23, 24, rows I-P for the minimum signal control. A cocktail (40 ul) containing the SMYD3 enzyme was added by Multidrop Combi (Thermo-Fisher). The compounds were allowed to incubate with SMYD3 for 30 min at room temperature, then a cocktail (10 ul) containing SAM and MEKK2 was added to initiate the reaction (final volume=51 ul). […] The assays were stopped by the addition of non-radiolabeled SAM (10 ul) to a final concentration of 100 uM, which dilutes the ^3H-SAM to a level where its incorporation into MEKK2 is no longer detectable. Radiolabeled MEKK2 was detected using a scintillation proximity assay (SPA). 10 uL of a 10 mg/mL solution of SPA beads in 0.5 M citric acid was added and the plates centrifuged at 600 rpm for 1 min to precipitate the radiolabeled MEKK2 onto the SPA beads.

Chain of SMYD3 (Q9H7B4 whole entry): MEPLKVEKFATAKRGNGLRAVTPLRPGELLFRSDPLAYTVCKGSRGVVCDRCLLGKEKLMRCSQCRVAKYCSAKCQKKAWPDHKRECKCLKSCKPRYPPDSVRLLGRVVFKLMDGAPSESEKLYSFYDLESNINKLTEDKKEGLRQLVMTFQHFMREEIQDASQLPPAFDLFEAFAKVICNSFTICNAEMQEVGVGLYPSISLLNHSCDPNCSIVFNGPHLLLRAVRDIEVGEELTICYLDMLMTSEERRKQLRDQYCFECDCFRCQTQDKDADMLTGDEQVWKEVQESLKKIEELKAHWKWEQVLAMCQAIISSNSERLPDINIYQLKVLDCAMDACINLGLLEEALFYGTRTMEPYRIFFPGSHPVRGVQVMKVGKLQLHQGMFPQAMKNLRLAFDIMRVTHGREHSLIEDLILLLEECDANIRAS

In order of falling IC50:
1. CCc1ncc(C(=O)N[C@H]2CC[C@H](N)CC2)s1 [compound 59, N-((1r,4r)-4-aminocyclohexyl)-2-ethylthiazole-5-carboxamide]  184 µM
2. CC(CC(=O)N[C@H]1CC[C@H](N)CC1)C1CC1 (stereo partly drawn) [compound 62, N-((1r,4r)-4-aminocyclohexyl)-3-cyclopropylbutanamide]  155 µM
3. CCc1ncc(C(=O)NC(c2ccccc2)C2CCNCC2)s1 (stereo not drawn) [compound 60, 2-ethyl-N-(phenyl(piperidin-4-yl)methyl)thiazole-5-carboxamide]  150 µM
4. CCc1ccc(C(=O)Nc2ccc(CN)cc2)s1 [compound 56, N-(4-(aminomethyl)phenyl)-5-ethylthiophene-2-carboxamide]  138 µM
5. Nc1cc(C(=O)NC(c2ccccc2)C2CCNCC2)n[nH]1 (stereo not drawn) [compound 45, 5-amino-N-(phenyl(piperidin-4-yl)methyl)-1H-pyrazole-3-carboxamide]  137 µM
6. Cc1cc2[nH]c(C(=O)N[C@H]3CC[C@H](N)CC3)cc2o1 [compound 57, N-((1r,4r)-4-aminocyclohexyl)-2-methyl-4H-furo[3,2-b]pyrrole-5-carboxamide]  134 µM
7. CC(=O)c1c[nH]c(C(=O)N[C@H]2CC[C@H](N)CC2)c1 [compound 64, 4-acetyl-N-((1r,4r)-4-aminocyclohexyl)-1H-pyrrole-2-carboxamide]  134 µM
8. CC(CC(=O)NC(c1ccccc1)C1CCNCC1)C1CC1 (stereo not drawn) [compound 63, 3-cyclopropyl-N-(phenyl(piperidin-4-yl)methyl)butanamide]  131 µM
9. Cn1nc(O)cc1C(=O)N[C@H]1CC[C@H](N)CC1 [compound 67, N-((1r,4r)-4-ammocyclohexyl)-3-hydroxy-1-methyl-1H-pyrazole-5-carboxamide]  129 µM
10. CCCCC1CC1C(=O)N[C@H]1CC[C@H](N)CC1 (stereo partly drawn) [compound 53, N-((1r,4r)-4-aminocyclohexyl)-2-butylcyclopropane-1-carboxamide]  122 µM
11. Cn1nc(N)cc1C(=O)N[C@H]1CC[C@H](N)CC1 [compound 48, 3-amino-N-((1r,4r)-4-aminocyclohexyl)-1-methyl-1H-pyrazole-5-carboxamide]  117 µM
12. CCc1ccc(C(=O)NC(c2ccccc2)C2CCNCC2)s1 (stereo not drawn) [compound 55, 5-ethyl-N-(phenyl(piperidin-4-yl)methyl)thiophene-2-carboxamide]  116 µM
13. N[C@H]1CC[C@H](NC(=O)c2ccc3nc(O)ccc3c2)CC1 [compound 76, N-((1r,4r)-4-aminocyclohexyl)-2-hydroxyquinoline-6-carboxamide]  115 µM
14. CCc1ncc(C(=O)Nc2ccc(CN)cc2)s1 [compound 61, N-(4-(aminomethyl)phenyl)-2-ethylthiazole-5-carboxamide]  114 µM
15. CCC(=O)c1c[nH]c(C(=O)Nc2ccc(CN)cc2)c1 [compound 52, N-(4-(aminomethyl)phenyl)-4-propionyl-1H-pyrrole-2-carboxamide]  108 µM
16. Nc1nc(C(=O)NC(c2ccccc2)C2CCNCC2)co1 (stereo not drawn) [compound 80, 2-amino-N-(phenyl(piperidin-4-yl)methyl)oxazole-4-carboxamide]  97.1 µM
17. N[C@H]1CC[C@H](NC(=O)c2ccc3c(c2)NC(=O)C3)CC1 [compound 71, N-((1r,4r)-4-aminocyclohexyl)-2-oxoindoline-6-carboxamide]  89.3 µM
18. O=C1Cc2cc(C(=O)NC3CCNCC3)cnc2N1 [compound 68, 2-oxo-N-(piperidin-4-yl)-2,3-dihydro-1H-pyrrolo[2,3-b]pyridine-5-carboxamide]  86.1 µM
19. N[C@H]1CC[C@H](NC(=O)c2ccc3c(c2)NC(=O)CN3)CC1 [compound 70, N-((1r,4r)-4-aminocyclohexyl)-3-oxo-1,2,3,4-tetrahydroquinoxaline-6-carboxamide]  77.5 µM
20. Cc1cc2[nH]c(C(=O)NC3CCNCC3)cc2o1 [compound 58, 2-methyl-N-(piperidin-4-yl)-4H-furo[3,2-b]pyrrole-5-carboxamide]  76.1 µM
21. N[C@H]1CC[C@H](NC(=O)c2ccc3c(c2)CCC(=O)N3)CC1 [compound 74, N-((1r,4r)-4-aminocyclohexyl)-2-oxo-1,2,3,4-tetrahydroquinoline-6-carboxamide]  65.8 µM
22. O=C(NC1CCNCC1)c1ccc2ncc(=O)[nH]c2c1 [compound 46, 3-oxo-N-(piperidin-4-yl)-3,4-dihydroquinoxaline-6-carboxamide]  63.7 µM
23. Nc1ccc2cc(C(=O)N[C@H]3CC[C@H](N)CC3)ccc2c1 [compound 75, 6-amino-N-((1r,4r)-4-aminocyclohexyl)-2-naphthamide]  62.5 µM
24. CC(=O)c1c[nH]c(C(=O)Nc2ccc(CN)cc2)c1 [compound 66, 4-acetyl-N-(4-(aminomethyl)phenyl)-1H-pyrrole-2-carboxamide]  60.9 µM
25. CCc1ccc(C(=O)N[C@H]2CC[C@H](N)CC2)s1 [compound 54, N-((1r,4r)-4-aminocyclohexyl)-5-ethylthiophene-2-carboxamide]  49.9 µM
26. CC(=O)c1c[nH]c(C(=O)NC2CCNCC2)c1 [compound 65, 4-acetyl-N-(piperidin-4-yl)-1H-pyrrole-2-carboxamide]  45.8 µM
27. CN(C)Cc1ccc(C(=O)N[C@H]2CC[C@H](N)CC2)o1 [compound 79, N-((1r,4r)-4-aminocyclohexyl)-5-((dimethylamino)methyl)furan-2-carboxamide]  38.9 µM
28. N[C@@H](Cc1ccc(O)cc1)C(=O)N1CCC(NC(=O)c2ccc3c(c2)NC(=O)C3)CC1 [compound 72, N-(1-(L-tyrosyl)piperidin-4-yl)-2-oxoindoline-6-carboxamide]  35.5 µM
29. CCS(=O)(=O)C(C)C(=O)N[C@H]1CC[C@H](N)CC1 (stereo partly drawn) [compound 78, N-((1r,4r)-4-aminocyclohexyl)-2-(ethylsulfonyl)propanamide]  35.2 µM
30. Cc1cc2[nH]c(C(=O)Nc3ccc(CN)cc3)cc2o1 [compound 81, N-(4-(aminomethyl)phenyl)-2-methyl-4H-furo[3,2-b]pyrrole-5-carboxamide]  25.9 µM
31. Cn1nc(O)cc1C(=O)NC1CCNCC1 [compound 69, 3-hydroxy-1-methyl-N-(piperidin-4-yl)-1H-pyrazole-5-carboxamide]  19.7 µM
32. N[C@H]1CC[C@H](NC(=O)c2ccc3[nH]c(=O)[nH]c3c2)CC1 [compound 73, N-((1r,4r)-4-aminocyclohexyl)-2-oxo-2,3-dihydro-1H-benzo[d]imidazole-5-carboxamide]  13.7 µM
33. N[C@H]1CC[C@H](NC(=O)c2cnc3c(c2)CC(=O)N3)CC1 [compound 47, N-((1r,4r)-4-aminocyclohexyl)-2-oxo-2,3-dihydro-1H-pyrrolo[2,3-b]pyridine-5-carboxamide]  11.9 µM
34. CCC(=O)c1c[nH]c(C(=O)NC(c2ccccc2)C2CCNCC2)c1 (stereo not drawn) [compound 77, N-(phenyl(piperidin-4-yl)methyl)-4-propionyl-1H-pyrrole-2-carboxamide]  10 µM
35. N[C@@H](Cc1ccc(O)cc1)C(=O)N1CCC(NC(=O)c2ccc3c(c2)CC(=O)N3)CC1 [compound 49, N-(1-(L-tyrosyl)piperidin-4-yl)-2-oxoindoline-5-carboxamide]  0.86 µM
36. N[C@@H](Cc1c[nH]c2ccccc12)C(=O)N1CCC(NC(=O)c2ccc3c(c2)CC(=O)N3)CC1 [compound 51, N-(1-(L-tryptophyl)piperidin-4-yl)-2-oxoindoline-5-carboxamide]  0.69 µM
